In patent publication US20260283977A1, “ADIPOCYTE GROWTH INHIBITOR” (WATANABE OYSTER LABORATORY CO., LTD., priority 2023, published 2026):

Experiments:
[1] = system: 3T3-L1 adipocytes; assay: Adipogenesis in 3T3-L1 adipocytes cultured with inhibitors of intracellular signaling pathways (AdipoRed); format: cell-based, mouse; conditions: for Lipogenesis/adipogenesis with the inhibitor alone: added two days after differentiation, cultured two days, genistein 1 or 10 μM, Wortmannin 10 or 100 nM, PD98059 1 or 10 μM, Bay 11-7082 1 or 10 nM, FIG. 6A-D
Description: (§1) In yet another experiment, to search for the involvement of intracellular signaling factors, the culture fluid was substituted with a culture fluid containing DMEM, which contained 10% FBS and insulin (10 μg/ml), and a vehicle (1% ethanol) or DHMBA (1 or 10 μM) two days after the differentiation culture. The cells were cultured for another two days in a culture fluid containing signaling inhibitory factors, such as genistein (1 or 10 μM), Wortmannin (10 or 100 nM), PD98059 (1 or 10 μM), or Bay 11-7082 (1 or 10 nM). After the cell culture, the amount of intracellular lipid (triglyceride) formation was quantified using AdipoRed Assay Reagent (Lonza, Walkersville, MD, USA) [19 to 21]. Fluorescence was measured at an excitation of 485 nm and an emission of 570 nm using a 96-well plate reader (μQuant, Bio-Tek Instruments).

[2] = system: 3T3-L1 preadipocytes; assay: Number of cells in the differentiation process of 3T3-L1 preadipocytes; format: cell-based, mouse; conditions: DHMBA 1 or 10 μM
Description: After the culture, adhering cells were separated from each well by adding an aseptic solution containing 0.05% trypsin and EDTA (0.1 ml per well) in PBS (Thermo Fisher Scientific, Waltham, MA, USA) not containing Ca^2+/Mg^2+ and incubating the cells for two minutes. Afterward, 0.9 ml of DMEM containing 10% FBS was added to each well to prepare cell suspensions. In order to measure the number of living cells, a medium (0.1 ml) containing suspension cells was mixed with 0.1 ml of 0.5% trypan blue staining solution. The living cells were counted under a microscope (Olympus MTV-3) using a cell counter (Line Seiki H-102P, Tokyo, Japan) and a hemocytometer (Sigma-Aldrich, St. Louis, Missouri). Two counts were averaged in each measurement. The number of cells was shown as the number per well of a culture plate. […]
First, to quantify the effect of DHMBA on the number of cells, a vehicle (1% ethanol as the final concentration) or DHMBA (1 or 10 μM) was added to the differentiation-inducing culture fluid on day 0 of differentiation starting culture or after two days. After zero to two days of the differentiation culture or after two to four days of the culture, the number of cells adhered to a culture dish was measured as described in the previous section.

[3] = system: MAPK; assay: Western blotting, MAPK level in 3T3-L1 adipocytes; format: cell-based, mouse; conditions: DHMBA 10 μM, day 2 to 4 of differentiation; FIG. 7
Description: (§2) 3T3-L1 preadipocytes (1×10^6 cells/100 mm dish used, in 10 ml of culture fluid) were cultured for three days, at which point they reached sub-confluence, in DMEM containing 10% BCS and 1% P/S. Then, the cells were cultured for two days in a DMEM differentiation culture fluid containing 10% FBS, 1% P/S, 0.5 mM IBMX, and 1 μM dexamethasone. […] After the culture, the culture dish was washed three times with cold PBS (10 ml) to eliminate floating cells and dead cells, and adhering cells were scraped using a cell lysis solution containing protease and protein phosphatase inhibitors (Roche Diagnostics, Indianapolis, IN, USA). Next, the cell lysates were centrifuged for 10 minutes at 17,000×g at 4° C. The concentration of proteins in the supernatant was quantified using Bio-Rad Protein Assay Dye (Bio-Rad Laboratories, Inc., Hercules, CA, USA) with bovine serum albumin as a standard. The extracted protein samples were stored at −80° C. until they were used. […]
(§3) After the incubation, the PVDF membrane was incubated at room temperature for 60 minutes in a horseradish peroxidase-conjugated secondary antibody (Santa Cruz Biotechnology, Inc., mouse sc-2005 or rabbit sc-2305; 1:1,000 dilution). Protein bands transferred to the PVDF membrane were detected on an X-ray film using a chemiluminescent substrate (catalog No. 34577, Thermo Scientific, Rockford, IL, USA). […]

[4] = system: PI3 kinase 100α; assay: Western blotting, PI3 kinase 100α level in 3T3-L1 adipocytes; format: cell-based, mouse; conditions: DHMBA 10 μM, day 2 to 4 of differentiation; FIG. 7
Description: as §2, §3

[5] = system: 3T3-L1 adipocytes; assay: Adipogenesis in 3T3-L1 adipocytes (AdipoRed Assay Reagent); format: cell-based, mouse
Description: 3T3-L1 preadipocytes (10^4 cells/0.2 ml per well of a 96-well plate) were cultured for three days, at which point they reached sub-confluence, in DMEM containing 10% BCS and 1% P/S. After the sub-confluence (on day 0), the cells were cultured in a differentiation-inducing culture fluid containing 10% FBS, 1% P/S, 0.5 mM IBMX, and 1 μM dexamethasone with the inclusion of a vehicle (1% ethanol as the final concentration) or DHMBA (0.1, 1, 10, or 100 μM). Two days later, the culture fluid was replaced with a DMEM culture fluid containing insulin (10 μg/ml) without containing 10% FBS or DHMBA, and then, the cells were cultured for another two days.
In another experiment, the cells were cultured in a differentiation culture fluid not containing DHMBA on day 0 of differentiation-inducing culture. Two days later, the culture fluid was replaced with a DMEM culture fluid containing 10% FBS and insulin (10 μg/ml) that contained any of a vehicle (1% ethanol as the final concentration) and DHMBA (0.1, 1, 10, or 100 μM), and then, the cells were cultured for another two days.
as §1

[6] = system: phosphorylated MAPK; assay: Western blotting, phosphorylated MAPK level in 3T3-L1 adipocytes; format: cell-based, mouse; conditions: DHMBA 10 μM, day 2 to 4 of differentiation; FIG. 7
Description: as §2, §3

[7] = system: 3T3-L1 preadipocytes; assay: Cell proliferation of 3T3-L1 preadipocytes (living cell count); format: cell-based, mouse
Description: […] Furthermore, in an experiment to measure cell proliferation, 3T3-L1 preadipocytes (1×10^5/ml per well of a 24-well plate) were cultured for three days in a culture fluid containing a vehicle (1% ethanol as the final concentration) or DHMBA (0.1, 1, 10, 100, or 1000 μM).
(§4) After the culture, adhering cells were separated from each well by adding an aseptic solution containing 0.05% trypsin and EDTA (0.1 ml per well) in PBS (Thermo Fisher Scientific, Waltham, MA, USA) not containing Ca^2+/Mg^2+ and incubating the cells for two minutes. Afterward, 0.9 ml of DMEM containing 10% FBS was added to each well to prepare cell suspensions. In order to measure the number of living cells, a medium (0.1 ml) containing suspension cells was mixed with 0.1 ml of 0.5% trypan blue staining solution. The living cells were counted under a microscope (Olympus MTV-3) using a cell counter (Line Seiki H-102P, Tokyo, Japan) and a hemocytometer (Sigma-Aldrich, St. Louis, Missouri). Two counts were averaged in each measurement. The number of cells was shown as the number per well of a culture plate.

[8] = system: 3T3-L1 adipocytes; assay: Lipid accumulation in 3T3-L1 adipocytes (Oil Red O staining); format: cell-based, mouse; conditions: DHMBA 0.1, 1, 10 or 100 μM on day 0 and after two days of differentiation culture
Description: In order to understand the influence of DHMBA on the differentiation of 3T3-L1 preadipocytes, 3T3-L1 preadipocytes (5×10^4 cells/ml per well of a 24-well plate) were cultured for three days, at which point they reached sub-confluence, in 10% bovine calf serum (BCS). After the cells reached sub-confluence (on day 0), the culture fluid was changed to a DMEM differentiation-inducing culture fluid containing 10% FBS, 1% P/S, 0.5 mM IBMX, 1 μM dexamethasone, and insulin (10 μg/ml), and the cells were cultured for another two days. […]
In an additional experiment to understand the effect of DHMBA on the content of lipids in 3T3-L1 adipocytes, a vehicle (1% ethanol as the final concentration) or DHMBA (0.1, 1, 10, or 100 μM) was included in the differentiation-inducing culture fluid to culture the cells from day 0 of the differentiation-inducing culture to four days later. In order to quantify the lipid content (triglycerides) after the cell culture, the cells in the 24-well plate were gently washed twice with PBS and fixed with 4% formaldehyde dissolved in PBS for 30 minutes. […] Furthermore, in order to quantify the lipid content, the Oil Red stain was extracted with isopropanol. […] The eluate was used to measure the absorbance at 510 nm with a spectrophotometer (μQuant, Bio-Tek Instruments).

[9] = system: Akt; assay: Western blotting, Akt level in 3T3-L1 adipocytes; format: cell-based, mouse; conditions: DHMBA 10 μM, day 2 to 4 of differentiation; FIG. 7
Description: as §2, §3

[10] = system: NF-κB p65; assay: Western blotting, NF-κB p65 level in 3T3-L1 adipocytes; format: cell-based, mouse; conditions: DHMBA 10 μM, day 2 to 4 of differentiation; FIG. 7
Description: as §2, §3

[11] = system: metastatic prostate cancer cells; conditions: earlier report, no details given; cited from earlier work
[12] = system: mTOR; assay: Western blotting, mTOR level in 3T3-L1 adipocytes; format: cell-based, mouse; conditions: DHMBA 10 μM, day 2 to 4 of differentiation; FIG. 7
Description: as §2, §3

[13] = system: C/EBPα; assay: Western blotting, C/EBPα level in 3T3-L1 adipocytes; format: cell-based, mouse; conditions: DHMBA 10 μM, day 2 to 4 of differentiation; FIG. 7
Description: as §2, §3

[14] = system: PPARγ; assay: Western blotting, PPARγ level in 3T3-L1 adipocytes; format: cell-based, mouse; conditions: DHMBA 10 μM, day 2 to 4 of differentiation; FIG. 7
Description: as §2, §3

[15] = system: 3T3-L1 preadipocytes; assay: Cell death of sub-confluent 3T3-L1 preadipocytes (cell count); format: cell-based, mouse; conditions: sub-confluent cells cultured another two days; DHMBA 0.1-1000 μM tested, effect at 1000 μM; FIG. 2C
Description: In an experiment to measure cell death, 3T3-L1 preadipocytes (1×10^5/ml per well of a 24-well plate) were cultured for three days in a DMEM culture fluid containing 10% BCS and 1% P/S. The cells that reached sub-confluence were cultured for another 48 hours in the presence of a vehicle (1% ethanol as the final concentration) or DHMBA (0.1, 1, 10, 100, or 1000 μM) to examine the variation in the number of cells.
as §4

COc1cccc(-c2cc(=O)c3ccccc3o2)c1N [PD98059, reference compound]
Lipogenesis/adipogenesis with the inhibitor alone [1]: inhibited

O=c1c(-c2ccc(O)cc2)coc2cc(O)cc(O)c12 [genistein, reference compound]
Lipogenesis/adipogenesis with the inhibitor alone [1]: not altered

Cc1ccc(S(=O)(=O)/C=C/C#N)cc1 [Bay 11-7082, reference compound]
Lipogenesis/adipogenesis with the inhibitor alone [1]: inhibited

COc1c(O)cc(CO)cc1O [DHMBA, 3,5-dihydroxy-4-methoxybenzyl alcohol]
Number of cells, differentiation day 2 to 4 ([2]; culture fluid containing insulin (10 μg/ml), another two days, FIG. 3C): not varied | Number of cells, differentiation day 0 to 2 ([2]; differentiation-inducing culture fluid (IBMX, dexamethasone, insulin), two days, FIG. 3B): not varied | MAPK protein level [3]: reduction | Inhibition of adipogenesis in the presence of Bay 11-7082 ([1]; DHMBA 1 or 10 μM with Bay 11-7082 1 or 10 nM, FIG. 6D): further enhanced | Inhibition of adipogenesis in the presence of PD98059 ([1]; DHMBA 1 or 10 μM with PD98059 1 or 10 μM, FIG. 6C): further enhanced | Inhibition of adipogenesis in the presence of Wortmannin ([1]; DHMBA 1 or 10 μM with Wortmannin 10 or 100 nM, FIG. 6B): further enhanced | Adipogenesis in the presence of genistein ([1]; DHMBA 1 or 10 μM with genistein 1 or 10 μM, FIG. 6A): inhibited adipogenesis | PI3 kinase 100α protein level [4]: reduction | Adipogenesis (intracellular lipid formation), DHMBA zero to four days after the differentiation ([5]; DHMBA 1, 10 or 100 μM (0.1 μM also tested), FIG. 5A): suppressed adipogenesis | Adipogenesis (intracellular lipid formation), DHMBA zero to two days after the differentiation ([5]; DHMBA 1, 10 or 100 μM, FIG. 5B): suppression was also observed | Adipogenesis (intracellular lipid formation), DHMBA two to four days after the differentiation ([5]; DHMBA 1, 10 or 100 μM, late stage, FIG. 5C): suppression was also observed | Phosphorylated MAPK protein level [6]: reduction | Cell proliferation (number of cells), time course ([7]; DHMBA 10 μM, cultured one to five days, effect at three to five days, FIG. 2A): suppressed | Cell proliferation (number of cells), concentration dependence ([7]; cultured three days, DHMBA 0.1, 1, 10, 100 or 1000 μM, FIG. 2B): suppressed at concentrations ranging from 1 μM to 1000 μM | Lipid accumulation (Oil Red O stained images) ([8]; FIG. 4A): reduced lipid accumulation | Lipid (triglyceride) content in the cells (absorbance at 510 nm) ([8]; FIG. 4B): decrease was confirmed | Akt protein level [9]: reduction | NF-κB p65 protein level [10]: reduced | Proliferation of metastatic prostate cancer cells [11]: suppress the proliferation | mTOR protein level [12]: reduction | C/EBPα protein level [13]: reduced | PPARγ protein level [14]: reduced | Cell death (number of cells) [15]: reduced

COC[C@H]1OC(=O)c2coc3c2[C@@]1(C)C1=C(C3=O)[C@@H]2CCC(=O)[C@@]2(C)C[C@H]1OC(C)=O [Wortmannin, reference compound]
Lipogenesis/adipogenesis with the inhibitor alone [1]: inhibited
